Test results taken from patent US8592404B2, “Derivatives of porphyrin, particularly chlorins and/or bacteriochlorins, and uses thereof in photodynamic therapy” (Universidade de Coimbra, priority 2004, dated 2013).
Like-named read-outs stand apart in the source and are kept apart here.

Experiments:
[1] = deuterated water, 7.4 pH; cited from earlier work
[2] = Fluorescence quantum yield; assay type: physicochemical
[3] = Lifetime of the triplet state in aqueous solution; assay type: physicochemical
[4] = Quantum yield of the formation of singlet oxygen (phosphorescence at 1270 nm versus reference photosensitizer TPPS); assay type: physicochemical; settings: deuterated aqueous solution
Description: According to the present invention, the reference photosensitizer used in meso-tetrakis(3-sulfophenyl)porphyrin (TPPS) whereof the value for the quantum yield of the formation of singlet oxygen in deuterated water is 0.64 at 7.4 pH (photochem. Photobiol, 70: 391, 1999).

[5] = Lifetime of singlet oxygen; assay type: physicochemical; settings: in deuterated water

Row | Compound | Quantum yield of the formation of singlet oxygen [1] | Fluorescence quantum yield [2] | Lifetime of the triplet state ([3]; air-saturated aqueous solution) [μs] | Lifetime of the triplet state ([3]; nitrogen-saturated aqueous solution) [μs] | Quantum yield of the formation of singlet oxygen [4] | Lifetime of singlet oxygen [5] [μs]
1 | O=S(=O)(O)c1cccc(-c2c3nc(c(-c4cccc(S(=O)(=O)O)c4)c4ccc([nH]4)c(-c4cccc(S(=O)(=O)O)c4)c4nc(c(-c5cccc(S(=O)(=O)O)c5)c5ccc2[nH]5)C=C4)C=C3)c1 [TPPS, meso-tetrakis(3-sulfophenyl)porphyrin] | 0.64 |  |  |  |  | 
2 | bacteriochlorin |  | 0.013 | 3.88 | 235 | greater than 30% | 65
